Paper PMC11973282, “RAS70 peptide targets multiforme glioblastoma by binding to the plasma membrane heat shock protein HSP70” (Frontiers in Oncology, 2025)
Where two headings read alike, the source gives them in different places.

Key:
[1] = tested on: GL261 cells (lower chamber; HUVEC and astrocytes barrier)
Experimental: (§2) Then, a peptide labeled with a fluorescent label was introduced into the upper chamber and co-incubation was carried out for 12, 24 and 36 hours. At the end of the incubation, the tumor cells were washed with cold phosphate-buffered saline (PBS) and fixed with a 4% solution of paraformaldehyde in PBS. Nuclei were stained with 4’,6-diamidino-2-phenylindole (DAPI). Fluorescent images were obtained using a Leica TCS SP8 confocal microscope (Leica, Germany). To avoid possible cross-interference of different fluorochromes, images for DAPI and FITC were obtained using a sequential sample scanning method. Fluorescently labeled cells were counted in the lower chamber. To estimate the mHsp70-mediated uptake of chaperone-targeted peptides tumor cells prior to incubation were pre-treated with anti-Hsp70 monoclonal antibodies SPA-810 (1:250, Stressgen) and SPA-815 (1:250 Stressgen). To exclude integrin (αvβ3, αvβ5)-mediated penetration of RAS70 tumor cells prior to incubation with peptides were pre-treated with anti- αvβ3 (1:200 clone LM609, ZMS1030, Sigma-Aldrich, USA), -αvβ5 (1:200 clone P1F6, MAB1961Z, Sigma-Aldrich, USA) monoclonal antibodies.
(§3) Then, a peptide labeled with a fluorescent dye (FITC) was introduced into the upper chamber and co-incubation was carried out for 12, 24 and 36 hours. At the end of the incubation, the tumor cells were washed with cold phosphate-buffered saline (PBS) and fixed with a 4% solution of paraformaldehyde in PBS. Nuclei were stained with 4’,6-diamidino-2-phenylindole (DAPI).
(§4) Data from 3 independent experiments are presented as M ± SE. […] Data from 3 independent experiments are presented as M ± SE. ** p < 0.01 for testing mean expression levels.

[2] = tested on: U251 cells (lower chamber; HUVEC and astrocytes barrier)
Experimental: as §2, §3, §4

[3] = tested on: normal brain tissues; assay: Ex vivo staining of normal brain tissue from patients with epilepsy; parameters: species or system human; conditions: tissues obtained intraoperatively from patients with epilepsy (n=2)
Experimental: For evaluation of targeting properties of RAS70 peptide in the non-tumorous brain tissues patient-derived samples obtained intraoperatively from patients with drug-resistant epilepsy underwent temporal resection (n=2) were employed.
Small pieces of brain tissue (50-100 mm³) were taken from patients or animals during surgery. The resulting material was washed three times in a PBS solution at room temperature and then stained, gently shaking, for 1 hour with one of the following combinations of dyes: a mixture of Hoechst 33342 (0.1 μg/mL) [Invitrogen, USA], monoclonal antibodies against Hsp70 conjugated with FITC, and RAS70 conjugated with Cy5; a mixture of Hoechst 33342 (0.1 μg/mL), LumiTracker® Mito Green FM [Lumiprobe, Russia], and TKD/NGL-RGD/RAS70 conjugated with sCy5. […] Hoechst 33342 fluorescence was excited with a 405 nm laser and recorded in the range 410 to 550 nm; Hsp70-FITC and Mito Green fluorescence were excited with a 488 nm laser and recorded in the range 495 to 550 nm; and Cy5 fluorescence was excited with a 633 nm laser and recorded in the range 635 to 750 nm. […]
(§1) To detect peptide localization, the biopsy material was additionally stained with a mitochondrial marker MitoGreen and anti-Hsp70 antibodies (SPA-810). […] Additionally, we assessed the depth of the RAS70-sCy3/sCy5 penetration into the tumor tissues […]. […]

[4] = tested on: high-grade glioma biopsy material; assay: Ex vivo topical application on patient brain tumor specimens, confocal/fluorescent microscopy; parameters: species or system human
Text: To study RAS70 peptide accumulation in the brain tumors the latter were obtained from neuro-oncological patients. Intraoperative biopsy material obtained from adult (n=6) and pediatric (n=2) patients with radiological diagnosis of high-grade gliomas without previous radiation therapy and chemotherapy. The patients underwent microsurgical interventions between February 2024 and July 2024 ( Table 1 ). The study protocol was approved by the Ethics Committee of the Almazov Medical Research Centre (approval No. 2712-20, December 21, 2020).
To evaluate local accumulation of the fluorescently-labeled peptides the latter were sprayed over the freshly dissected brain tumor specimens as follows (1): control group – PBS (50 μL) (2); NGL-sCy7.5 peptide (50 μl, at concentration of 100 μg) (3); NGL-RGD-sCy7.5 peptide (50 μl, at concentration of 100 μg) (4); TKD-sCy7.5 peptide (50 μl, at concentration of 100 μg) (5); […] peptide (50 μl, at concentration of 100 μg). […]
Small pieces of brain tissue (50-100 mm³) were taken from patients or animals during surgery. […] Hoechst 33342 fluorescence was excited with a 405 nm laser and recorded in the range 410 to 550 nm; Hsp70-FITC and Mito Green fluorescence were excited with a 488 nm laser and recorded in the range 495 to 550 nm; and Cy5 fluorescence was excited with a 633 nm laser and recorded in the range 635 to 750 nm. […]
To study the target properties of the peptide RAS70 ex vivo, biopsy material was obtained from adult (n=6) and pediatric (n=2) neurooncological patients ( Table 1 ). […] Subsequently, tumor was co-incubated with peptide at a concentration of 1 mg/mL for 5–10 minutes, after which the tissue sample was washed with a PBS solution and analyzed by live-cell inverted confocal microscopy ( Figures 11A–C ).
as §1

[5] = tested on: U251 cells (lower chamber; HUVEC and astrocytes barrier); assay: Transwell BBB model, peptide passage and accumulation in tumor cells; conditions: transwell BBB model: HUVEC (5×10^5) and astrocytes (5×10^5) in upper chamber, U251 (1×10^4) in lower chamber; FITC-labeled peptide; 36 hours; confocal microscopy count; M ± SE, 3 independent experiments
Experimental: as §2, §3, §4

Row | SMILES | fluorescently labeled tumor cells in the lower chamber [1] [cells] | fluorescently labeled tumor cells in the lower chamber [2] [cells] | localization in normal brain tissue [3] | accumulation in patient brain tumor samples ([4]; 1 mg/mL, 5–10 minutes, live-cell inverted confocal microscopy, adult (n=6) and pediatric (n=2) patients) | depth of the peptide penetration into the tumor tissues ([4]; RAS70-sCy3/sCy5 topically applied on patient tumor samples, histological sections, fluorescent microscopy) [mm] | retention in necrotic tumor areas ([4]; patient tumor samples, confocal microscopy) | fluorescently labeled tumor cells in the lower chamber [5] [cells]
1 | CC(C)C[C@H](NC(=O)[C@H](CC(C)C)NC(=O)[C@H](CC(N)=O)NC(=O)[C@H](CC(N)=O)NC(=O)[C@H](CC(=O)O)NC(=O)[C@H](CCCCN)NC(=O)[C@@H](N)[C@@H](C)O)C(=O)NCC(=O)N[C@@H](CCCNC(=N)N)C(=O)N[C@@H](Cc1ccccc1)C(=O)N[C@@H](CCC(=O)O)C(=O)N[C@@H](CC(C)C)C(=O)N[C@@H](CO)C(=O)NCC(=O)NCCC(=O)N[C@@H](CCCNC(=N)N)C(=O)NCC(=O)N[C@@H](CC(=O)O)C(=O)O [RAS70] | 553 ± 61 | 603 ± 87 | no tissue-specific localization of RAS70 was detected | noted in all analyzed samples | 3.0 ± 0.87 | non-specific retention of the peptide | 
2 | CC(C)C[C@H](NC(=O)[C@H](CC(C)C)NC(=O)[C@H](CC(N)=O)NC(=O)[C@H](CC(N)=O)NC(=O)[C@H](CC(=O)O)NC(=O)[C@H](CCCCN)NC(=O)[C@@H](N)[C@@H](C)O)C(=O)NCC(=O)N[C@@H](CCCNC(=N)N)C(=O)N[C@@H](Cc1ccccc1)C(=O)N[C@@H](CCC(=O)O)C(=O)N[C@@H](CC(C)C)C(=O)N[C@@H](CO)C(=O)NCC(=O)O [TKD] |  |  |  |  |  |  | 345 ± 51
